According to patent EP4342885A1, “N-(3-(AMINOMETHYL)-PHENYL)-5-(4-PHENYL)-5-(TRIFLUOROMETHYL)-4,5-DIHYDROISOXAZOL-3-AMINE DERIVATIVES AND SIMILAR COMPOUNDS AS PESTICIDES” (priority 2022, dated 2024):

Experiments:
Type in all cases: in vivo
[1] = tested on: Heliothis virescens; test: Tobacco budworm (Heliothis virescens) control, 96-well microtiter plate insect diet with eggs; conditions: 120 h, read-out: mortality in comparison with untreated controls
Protocol: For evaluating control of Tobacco Budworm, the test unit consisted of 96-well-microtiter plates containing an insect diet and 15-25 H. virescens eggs. The compounds were formulated using a solution containing 75% v/v water and 25% v/v DMSO. Different concentrations of formulated compounds were sprayed onto the insect diet at 10µl, using a custom-built micro atomizer, at two replications. After application, microtiter plates were incubated at about 28 ± 1°C and about 80 ± 5 % relative humidity for 5 days. Egg and larval mortality was then visually assessed.

[2] = tested on: Aedes aegypti; test: whole plant or invertebrate; conditions: 48 h, larval mortality, 2 days, read-out: mortality in comparison with untreated controls
Protocol: For evaluating control of Yellow Fever Mosquito, the test unit consisted of 96-well-microtiter plates containing 200µl of tap water per well and 5-15 freshly hatched A. aegypti larvae. The active compounds were formulated using a solution containing 75% (v/v) water and 25% (v/v) DMSO. Different concentrations of formulated compounds or mixtures were sprayed onto the insect diet at 2.5µl, using a custom-built micro atomizer, at two replications.
After application, microtiter plates were incubated at 28 ± 1°C, 80 ± 5 % RH for 2 days. Larval mortality was then visually assessed.

[3] = tested on: Myzus persicae; test: Green peach aphid (Myzus persicae), mixed life stages, systemic test via artificial diet under membrane; conditions: 72 h, read-out: mortality in comparison with untreated controls
Text: For evaluating control of Green Peach Aphid through systemic means the test unit consisted of 96-well-microtiter plates containing liquid artificial diet under an artificial membrane. The compounds were formulated using a solution containing 75% v/v water and 25% v/v DMSO. Different concentrations of formulated compounds were pipetted into the aphid diet, using a custom-built pipette, at two replications. After application, 5 - 8 adult aphids were placed on the artificial membrane inside the microtiter plate wells. The aphids were then allowed to suck on the treated aphid diet and incubated at about 23 ± 1°C and about 50 ± 5 % relative humidity for 3 days. Aphid mortality and fecundity was then visually assessed.

[4] = tested on: Plutella xylostella; test: Diamond back moth (Plutella xylostella) control, 96-well microtiter plate insect diet with eggs; conditions: 120 h, read-out: mortality in comparison with untreated controls
Protocol: For evaluating control of […] (Plutella xylostella) the test unit consisted of 96-well-microtiter plates containing an insect diet and 15-25 P. xylostella eggs.
The compounds or mixtures were formulated using a solution containing 75% water and 25% DMSO. Different concentrations of formulated compounds or mixtures were sprayed onto the insect diet at 5µl, using a custom-built micro atomizer, at two replications.
After application, microtiter plates were incubated at 28 ± 1°C, 80 ± 5 % RH for 5 days. Egg and larval mortality was then visually assessed.

[5] = tested on: Anthonomus grandis; test: Boll weevil (Anthonomus grandis) control, 96-well microtiter plate insect diet with eggs; conditions: 120 h, read-out: mortality in comparison with untreated controls
Protocol: For evaluating control of boll weevil, the test unit consisted of 96-well-microtiter plates containing an insect diet and 5-10 A. grandis eggs.
The compounds were formulated using a solution containing 75% v/v water and 25% v/v DMSO. Different concentrations of formulated compounds were sprayed onto the insect diet at 5µl, using a custom-built micro atomizer, at two replications.
After application, microtiter plates were incubated at about 25 ± 1°C and about 75 ± 5 % relative humidity for 5 days. Egg and larval mortality were then visually assessed.

Measured: mortality at 800 ppm

O=C(NCc1cc(OC2=NOC(c3cc(Cl)c(F)c(Cl)c3)(C(F)(F)F)C2)ccc1F)C1CC1 (stereo not shown) [I-22]
≥ 75%: [1] | [2] | [3] | [4] | [5]

O=C(NCc1cc(NC2=NOC(c3ccc(F)c(Cl)c3)(C(F)(F)F)C2)ccc1Cl)C1CCC1 (stereo not shown) [I-23]
≥ 75%: [1] | [2] | [3] | [4] | [5]

CC(C)C(=O)NCc1cc(NC2=NOC(c3ccc(F)c(Cl)c3)(C(F)(F)F)C2)ccc1Cl (stereo not shown) [I-25]
≥ 75%: [1] | [2] | [3] | [4] | [5]

CC(C)CC(=O)NCc1cc(NC2=NOC(c3ccc(F)c(Cl)c3)(C(F)(F)F)C2)ccc1Cl (stereo not shown) [I-28]
≥ 75%: [1] | [2] | [3] | [4] | [5]

N#CC1(C(=O)NCc2cc(NC3=NOC(c4ccc(F)c(Cl)c4)(C(F)(F)F)C3)ccc2Cl)CC1 (stereo not shown) [I-32]
≥ 75%: [1] | [2] | [3] | [4] | [5]

CCOC(=O)N(C1=NOC(c2cc(Cl)c(F)c(Cl)c2)(C(F)(F)F)C1)c1ccc(F)c(CNC(=O)C2CC2)c1 (stereo not shown) [I-42]
≥ 75%: [1] | [2] | [3] | [4] | [5]

O=C(NCc1cc(NC2=NOC(c3cc(Cl)cc(Cl)c3)(C(F)(F)Cl)C2)ccc1F)C1CC1 (stereo not shown) [I-43]
≥ 75%: [1] | [2] | [3] | [4] | [5]

O=C(NCc1cc(NC2=NOC(c3ccc(F)c(Cl)c3)(C(F)(F)F)C2)ccc1Cl)C1CSC1 (stereo not shown) [I-45]
≥ 75%: [1] | [2] | [3] | [4] | [5]

O=C(NCc1cc(NC2=NOC(c3ccc(F)c(Cl)c3)(C(F)(F)F)C2)ccc1Cl)C1CC1(F)F (stereo not shown) [I-48]
≥ 75%: [1] | [2] | [3] | [4] | [5]

CCC(=O)NCc1cc(NC2=NOC(c3ccc(F)c(Cl)c3)(C(F)(F)F)C2)ccc1Cl (stereo not shown) [I-50]
≥ 75%: [1] | [2] | [3] | [4] | [5]

O=C(N[C@H]1CCc2ccc(NC3=NOC(c4ccc(F)c(Cl)c4)(C(F)(F)F)C3)cc21)C1CC1 (stereo partly shown) [III-1]
≥ 75%: [1] | [2] | [3] | [4] | [5]
